# Values of other authors, collected in patent publication US12176074B2, “Compound function prediction method based on neural network and connectivity map algorithm” (BEIJING GIGACEUTICALS TECH. CO. LTD, priority 2021, dated 2024).
# Test system: novel coronavirus (SARS-CoV-2)
# Conditions: specific data in Chinese patent application 202010309486.2; read-out: EC50, effect for fighting against the novel coronavirus
structure (smiles),measurement,value
O=C1C[C@@H](c2ccc(O[C@@H]3O[C@H](CO)[C@@H](O)[C@H](O)[C@H]3O)cc2)Oc2cc(O)ccc21 [liquiritin],EC50,2390 nM
